According to US20240047019A1, “MODEL-FREE TIME-INVARIANT EVALUATION OF TRANSPORT AND EFFICACY OF CHEMICALS AND DRUGS” (Seqvera Ltd. Oy, priority 2022, published 2024):
Where two headings read alike, the source gives them in different places. Values belong to the molecule of their own block, whether it stands above or below them.

Columns and labels:
[1] = test system: L-type Ca^2+ current (ICa); test: calcium current (ICa) changes in ventricular myocytes with NCX inhibitor; type: cell-based, canine
Description: In this example the data from publication by Oravecz et.al. was used, where authors have attempted to clarify the underlying mechanism of the limited inotropic action of selective sodium-calcium exchange (NCX) inhibition by a novel inhibitor molecule (ORM-10962) on canine ventricular myocytes. […] The forward mode operation of NCX is considered as the main route of Ca^2+ removal balancing the Ca^2+influx generated by the L-type Ca^2+ current (ICa) and the reverse mode NCX activity. […] These experimental data have been analyzed in the present invention. […] In order to perform time convolution directly, the concentration of ORM-10962 should have been known in the target compartment, but here only the effect size (current measured) has been reported.

[2] = test system: L-type Ca^2+ current (ICa); conditions: steady-state conditions; cited from earlier work
[3] = caffeine transport in membrane-separated chip, control tests (bare membrane); type: in vitro ADME; conditions: 0.25 mg/mL
Method: In this example data of caffeine transport measurements disclosed in publication are analyzed with a new method. […] The membrane had 0.4 micrometer pore size and was made of polyester track etched (PETE) insert, which was used bare (control tests) and with a double layer of cells (actual tests): human umbilical vein endothelial cells (HUVECs) and BeWo cells (derived from a human choriocarcinoma) to represent the endothelium in the fetal interface and the epithelium in the maternal interface. The mean data used are from three independent experiments.

[4] = test system: placental barrier (HUVECs and BeWo cells); test: caffeine transport in placenta-on-a-chip, actual tests (double cells layer); type: in vitro ADME, human; conditions: 0.25 mg/mL
clinical = conditions: human, in vivo
Description: The method used in publication relies on fractional order derivatives with a multi-compartmental model using Laplace transform, which is not a common operation a lab technician usually able to perform. […] The resulting simplified equation for time changes of the concentration in the blood plasma (=the target compartment in the terminology of the recent invention), designated as c2(t) in [6], was expressed with six unknown parameters (d, k02, k21, α1, α2 and the lag time) as:
Clinical data of Popovic et al. have been used representing evaluation of diclofenac pharmacokinetics in a small number of healthy adults during a bioequivalence trial. In the spirit of the present invention, the data from were taken as cumulative concentration of diclofenac, averaged for all 12 patients. Here the initial mass of the drug was known of 100 mg, and the instant volume of distribution (VOD-2) was directly quantifiable by diving this mass for the measured cumulative concentration analyzed (Table 2).

[5] = cited from earlier work; for Tested c2(t): 100 mg, mean of 12, cumulative
[6] = gentamicin elution from coated Ti-6Al-4V disks into 2 mL distilled water at 37° C.; type: physicochemical; conditions: for c2(t), gentamicin concentration in the target compartment: distilled water 37° C.; for Remained in the coating: of 1395 μg/disk
Method: In this example the most detailed in vitro testing conditions have been used. Disk of diameter 15.5 mm and thickness of 2 mm made of medical titanium Grade 5 (Ti-6Al-4V) alloy were uniformly coated with a mixture of 1395 μg/disk gentamicin palmitate and 3745 μg/disk palmitic acid in triplicate (9 disks=3 disks×3 repetitions).
Disks were placed into a glass tube filled with 2 mL distilled water at constant temperature 37° C. and aliquots of 0.050 mL were periodically extracted without refilling the remining volume. The concentration of gentamicin in these samples was measured in mg/L and based on this, the amount of gentamicin in the remaining solution was calculated. The procedure was repeated until 336 h have been accumulated, and the average of three measurements has been calculated, Table 5.
After 336 hours of measurements, totally 0.5 mL of liquid is removed and about 60 μg of the drug is taken off the system. This represents of 25% of the total liquid volume and about 23.5% of the total drug released from the disk. With unknown solubility from the beginning, it is difficult to say how this drug removal affects the solubility rate, diffusion rate (concentration gradient uneven) and about the release kinetics in general (besides just making a curve fitting). As liquid is being periodically removed, the VOD-2 in the target compartment is getting smaller from 2 mL to 1.5 mL (being not constant) and thus the concentration of gentamicin there (c2(t)) is affected too.
For the method of the present invention, exact VOD-1 for the source compartment has been first calculated. For the density of gentamicin palmitate of 1.5 g/cc and palmitic acid of 0.86 g/cc, taking into account the disk surface area of 188.69 mm^2, the expected dense coating thickness is about 28 μm at the beginning of the test, leading to the VOD-1 value (for the source compartment) of 5.285 mm^3. Since VOD-2 is not constant due to aliquots takeoffs, the coefficient of partition is not constant either and will change with time, approaching an equilibrium value (Leq).

[7] = least-squares fit in [6], slow release 100 mg tablet

Molecule: O=C(CN1CCC(O)CC1)Nc1ccc(Oc2ccc3c(c2)CCC(c2ccccc2)O3)nc1 (stereo not shown) [ORM-10962]
efficacy parameter LCa ([1]; ICa change per μM of the added drug): 42.123 nA/μM | characteristic time ([1]; calcium current in myocytes): 1.69 s | non-dimensional transport constant K ([1]; calcium current in myocytes): 104.5 | reduction of ICa amplitude in the presence vs. absence of the inhibitor [2]: significantly greater

Molecule: Cn1c(=O)c2c(ncn2C)n(C)c1=O [caffeine]
Characteristic time τ [3]: 40 min | Transport constant K [3]: 162.77 | kinetic parameter β [3]: 2.0-2.9 | Coefficient of partition Leq ([3]; Control (no cells)): 5.61 | Coefficient of partition Leq ([4]; Actual (double cells layer)): 35.5 | Characteristic time τ ([4]; human): 27 min | Transport constant K ([4]; human): 6697.34 | kinetic parameter β ([4]; human): 3.2-5.4

kinetic parameter β (clinical): > 1 | Vd at 1 h (clinical; 100 mg): 522 L | Vd at 1.5 h (clinical; 100 mg): 56.1 L | Vd at 2 h (clinical; 100 mg): 21.2 L | Vd at 2.5 h (clinical; 100 mg): 13.7 L | Vd at 3 h (clinical; 100 mg): 10.5 L | Vd at 4 h (clinical; 100 mg): 8.97 L | Vd at 6 h (clinical; 100 mg): 8.11 L | Vd at 8 h (clinical; 100 mg): 7.78 L | Vd at 12 h (clinical; 100 mg): 7.75 L | Vd at 24 h (clinical; 100 mg): 7.69 L | Calculated c2(t) (clinical; 1 h): 0.141 mg/mL | Calculated c2(t) (clinical; 1.5 h): 1.216 mg/mL | Dr (generalized Deborah rate number) (clinical; 1.5 h): 644.65 ×10^6 | kinetic parameter β (clinical; 1.5 h): 5.538 | Calculated c2(t) (clinical; 2 h): 3.818 mg/mL | Dr (generalized Deborah rate number) (clinical; 2 h): 244.03 ×10^6 | kinetic parameter β (clinical; 2 h): 4.884 | Calculated c2(t) (clinical; 2.5 h): 6.832 mg/mL | Dr (generalized Deborah rate number) (clinical; 2.5 h): 124.66 ×10^6 | kinetic parameter β (clinical; 2.5 h): 4.480 | Calculated c2(t) (clinical; 3 h): 9.093 mg/mL | Dr (generalized Deborah rate number) (clinical; 3 h): 75.67 ×10^6 | kinetic parameter β (clinical; 3 h): 4.256 | Calculated c2(t) (clinical; 4 h): 11.349 mg/mL | Dr (generalized Deborah rate number) (clinical; 4 h): 37.46 ×10^6 | kinetic parameter β (clinical; 4 h): 3.875 | Calculated c2(t) (clinical; 6 h): 12.560 mg/mL | Dr (generalized Deborah rate number) (clinical; 6 h): 16.35 ×10^6 | kinetic parameter β (clinical; 6 h): 3.388 | Calculated c2(t) (clinical; 8 h): 12.846 mg/mL | Dr (generalized Deborah rate number) (clinical; 8 h): 10.07 ×10^6 | kinetic parameter β (clinical; 8 h): 3.266 | Calculated c2(t) (clinical; 12 h): 13.001 mg/mL | Dr (generalized Deborah rate number) (clinical; 12 h): 5.80 ×10^6 | kinetic parameter β (clinical; 12 h): 3.471 | Calculated c2(t) (clinical; 24 h): 13.073 mg/mL | Dr (generalized Deborah rate number) (clinical; 24 h): 3.07 ×10^6 | kinetic parameter β (clinical; 24 h): 3.388
Molecule: O=C(O)Cc1ccccc1Nc1c(Cl)cccc1Cl [diclofenac]
Tested c2(t) ([5]; 1.0 h): 0.192 mg/mL | Tested c2(t) ([5]; 1.5 h): 1.783 mg/mL | Tested c2(t) ([5]; 2.0 h): 4.725 mg/mL | Tested c2(t) ([5]; 2.5 h): 7.283 mg/mL | Tested c2(t) ([5]; 3 h): 9.500 mg/mL | Tested c2(t) ([5]; 4 h): 11.150 mg/mL | Tested c2(t) ([5]; 6 h): 12.333 mg/mL | Tested c2(t) ([5]; 8 h): 12.858 mg/mL | Tested c2(t) ([5]; 12 h): 12.900 mg/mL | Tested c2(t) ([5]; 24 h): 13.000 mg/mL | fitted parameter d of fractional compartmental model [5, 7]: 22.79±16.41 | fitted parameter k02 of fractional compartmental model [5, 7]: 1.51±1.05

Sample gentamicin amount, Average ([6]; average of S1-S3, 1 h): 187.2 µg | Sample gentamicin amount, Average ([6]; average of S1-S3, 3 h): 221.2 µg | Sample gentamicin amount, Average ([6]; average of S1-S3, 6 h): 171.9 µg | Sample gentamicin amount, Average ([6]; average of S1-S3, 24 h): 191.1 µg | Sample gentamicin amount, Average ([6]; average of S1-S3, 48 h): 195.1 µg | Sample gentamicin amount, Average ([6]; average of S1-S3, 72 h): 189.4 µg | Sample gentamicin amount, Average ([6]; average of S1-S3, 96 h): 199.9 µg | Sample gentamicin amount, Average ([6]; average of S1-S3, 168 h): 241.0 µg | Sample gentamicin amount, Average ([6]; average of S1-S3, 264 h): 247.5 µg | Sample gentamicin amount, Average ([6]; average of S1-S3, 336 h): 255.3 µg | c2(t), gentamicin concentration in the target compartment ([6]; 1 h): 93.6 mg/L | c2(t), gentamicin concentration in the target compartment ([6]; 3 h): 113.4 mg/L | c2(t), gentamicin concentration in the target compartment ([6]; 6 h): 90.5 mg/L | c2(t), gentamicin concentration in the target compartment ([6]; 24 h): 103.3 mg/L | c2(t), gentamicin concentration in the target compartment ([6]; 48 h): 108.4 mg/L | c2(t), gentamicin concentration in the target compartment ([6]; 72 h): 108.3 mg/L | c2(t), gentamicin concentration in the target compartment ([6]; 96 h): 117.6 mg/L | c2(t), gentamicin concentration in the target compartment ([6]; 168 h): 146.1 mg/L | c2(t), gentamicin concentration in the target compartment ([6]; 264 h): 154.7 mg/L | c2(t), gentamicin concentration in the target compartment ([6]; 336 h): 164.7 mg/L | Remained in the coating ([6]; 1 h): 1207.8 µg | Remained in the coating ([6]; 3 h): 1173.8 µg | Remained in the coating ([6]; 6 h): 1223.1 µg | Remained in the coating ([6]; 24 h): 1203.9 µg | Remained in the coating ([6]; 48 h): 1199.9 µg | Remained in the coating ([6]; 72 h): 1205.6 µg | Remained in the coating ([6]; 96 h): 1195.1 µg | Remained in the coating ([6]; 168 h): 1154.0 µg | Remained in the coating ([6]; 264 h): 1147.5 µg | Remained in the coating ([6]; 336 h): 1139.7 µg
Molecule: gentamicin

Molecule: gentamicin palmitate
kinetic parameter β ([6]; not constant, FIG. 12): well below unity
